Drawing on US20230073777A1, “CYCLIC-AMP RESPONSE ELEMENT BINDING PROTEIN (CBP) AND/OR ADENOVIRAL E1A BINDING PROTEIN OF 300 KDA (P300) DEGRADATION COMPOUNDS AND METHODS OF USE” (CULLGEN (SHANGHAI), INC., priority 2019, published 2023), this text covers IC50 and inhibition for twelve compounds.

For orientation: IC50 means the concentration needed to halve the response being measured.

One test concerns LNCaP cells. Put plainly: LNCaP cell viability assay (CellTiter-Glo). It counts as cell-based. To be noted: Homo sapiens, 72 h, LNCaP prostate cancer cell viability inhibition, 3 days. As for the experimental part:
LNCaP cells seeded in 96-well plates were treated with 10 μM GNE-781 or selected bivalent compounds, i.e. P-001, P-002, and P-019, following a 12-point 3-fold serial dilution. Three days after treatment, cell viability was determined using the CellTiter-Glo kit (Promega) following manufacturer's instructions. Cell viability was normalized to the mean values of 3 replicates of untreated cells. Dose-dependent response was analyzed following the least-squares non-linear regression method using the GraphPad Prism 5.0 software.
LNCaP cells were treated with GNE-781 or selected bivalent compounds for 3 days at indicated concentrations following a 3-fold serial dilution.
Cells were seeded at a density of 5000 cells per well in 96-well assay plates and treated with test compounds following a 12-point 3-fold serial dilution. Three days later, cell viability was determined using the CellTiter-Glo assay kit according to the manufacturer's instructions. The dose-response curves were determined and IC50 values were calculated using the GraphPad Prism software following a nonlinear regression (least squares fit) method.
(In general: In ATP-based viability assays light output follows the ATP content of the culture.)

The target in a further test is P300 (Homo sapiens, UniProt Q09472). Description: Immunoblotting of P300 protein levels in LNCaP or 22RV1 cells. It counts as cell-based. Also noted: LNCaP or 22RV1 cells that express CBP/P300 proteins were treated with GNE-781 or the bivalent compounds; endogenous in cells; host or cells: LNCaP (clone FGC) or 22RV1 cells. The note with it: read-out: Degradation (10 nM). The method, then: Specific exemplary bivalent compounds were characterized in LNCaP or 22RV1 cells. LNCaP or 22RV1 cells that express CBP/P300 proteins were treated with GNE-781 or the bivalent compounds disclosed herein (P-001 to P-174) for indicated hours. Cells were collected, lysed and subject to immunoblotting using an antibody specific to P300 or CBP proteins. Tubulin or vinculin was included as the loading control. DMSO was used as the negative control.
Cultured cells or tissue chunks were washed with cold PBS once and lysed in cold RIPA buffer supplemented with protease inhibitors and phosphatase inhibitors (Beyotime Biotechnology). The solutions were then incubated at 4° C. for 30 minutes with gentle agitation to fully lyse cells. Cell lysates were centrifuged at 13,000 rpm for 10 minutes at 4° C. and pellets were discarded. Total protein concentrations in the lysates were determined by BCA assays (Beyotime Biotechnology). Cell lysates were mixed with Laemmli loading buffer to 1× and heated at 99° C. for 5 min. Proteins were resolved on SDS-PAGE and visualized by chemiluminescence. Images were taken by a ChemiDoc MP Imaging system (Bio-Rad). Protein bands were quantitated using the accompanied software provided by Bio-Rad.
A general note: A western blot detects proteins with antibodies after separation by electrophoresis.

The mark [1] stands for this setting: percentage of inhibition of p300 at 10 nM (Table 3).
[2] abbreviates: percentage of inhibition of p300 at 10 nM (Table 2).

The structures appear in SMILES notation. Read-outs that look alike come from different tables or passages of the source. Some results are limits rather than exact numbers.

Chain of P300 (Q09472 whole entry): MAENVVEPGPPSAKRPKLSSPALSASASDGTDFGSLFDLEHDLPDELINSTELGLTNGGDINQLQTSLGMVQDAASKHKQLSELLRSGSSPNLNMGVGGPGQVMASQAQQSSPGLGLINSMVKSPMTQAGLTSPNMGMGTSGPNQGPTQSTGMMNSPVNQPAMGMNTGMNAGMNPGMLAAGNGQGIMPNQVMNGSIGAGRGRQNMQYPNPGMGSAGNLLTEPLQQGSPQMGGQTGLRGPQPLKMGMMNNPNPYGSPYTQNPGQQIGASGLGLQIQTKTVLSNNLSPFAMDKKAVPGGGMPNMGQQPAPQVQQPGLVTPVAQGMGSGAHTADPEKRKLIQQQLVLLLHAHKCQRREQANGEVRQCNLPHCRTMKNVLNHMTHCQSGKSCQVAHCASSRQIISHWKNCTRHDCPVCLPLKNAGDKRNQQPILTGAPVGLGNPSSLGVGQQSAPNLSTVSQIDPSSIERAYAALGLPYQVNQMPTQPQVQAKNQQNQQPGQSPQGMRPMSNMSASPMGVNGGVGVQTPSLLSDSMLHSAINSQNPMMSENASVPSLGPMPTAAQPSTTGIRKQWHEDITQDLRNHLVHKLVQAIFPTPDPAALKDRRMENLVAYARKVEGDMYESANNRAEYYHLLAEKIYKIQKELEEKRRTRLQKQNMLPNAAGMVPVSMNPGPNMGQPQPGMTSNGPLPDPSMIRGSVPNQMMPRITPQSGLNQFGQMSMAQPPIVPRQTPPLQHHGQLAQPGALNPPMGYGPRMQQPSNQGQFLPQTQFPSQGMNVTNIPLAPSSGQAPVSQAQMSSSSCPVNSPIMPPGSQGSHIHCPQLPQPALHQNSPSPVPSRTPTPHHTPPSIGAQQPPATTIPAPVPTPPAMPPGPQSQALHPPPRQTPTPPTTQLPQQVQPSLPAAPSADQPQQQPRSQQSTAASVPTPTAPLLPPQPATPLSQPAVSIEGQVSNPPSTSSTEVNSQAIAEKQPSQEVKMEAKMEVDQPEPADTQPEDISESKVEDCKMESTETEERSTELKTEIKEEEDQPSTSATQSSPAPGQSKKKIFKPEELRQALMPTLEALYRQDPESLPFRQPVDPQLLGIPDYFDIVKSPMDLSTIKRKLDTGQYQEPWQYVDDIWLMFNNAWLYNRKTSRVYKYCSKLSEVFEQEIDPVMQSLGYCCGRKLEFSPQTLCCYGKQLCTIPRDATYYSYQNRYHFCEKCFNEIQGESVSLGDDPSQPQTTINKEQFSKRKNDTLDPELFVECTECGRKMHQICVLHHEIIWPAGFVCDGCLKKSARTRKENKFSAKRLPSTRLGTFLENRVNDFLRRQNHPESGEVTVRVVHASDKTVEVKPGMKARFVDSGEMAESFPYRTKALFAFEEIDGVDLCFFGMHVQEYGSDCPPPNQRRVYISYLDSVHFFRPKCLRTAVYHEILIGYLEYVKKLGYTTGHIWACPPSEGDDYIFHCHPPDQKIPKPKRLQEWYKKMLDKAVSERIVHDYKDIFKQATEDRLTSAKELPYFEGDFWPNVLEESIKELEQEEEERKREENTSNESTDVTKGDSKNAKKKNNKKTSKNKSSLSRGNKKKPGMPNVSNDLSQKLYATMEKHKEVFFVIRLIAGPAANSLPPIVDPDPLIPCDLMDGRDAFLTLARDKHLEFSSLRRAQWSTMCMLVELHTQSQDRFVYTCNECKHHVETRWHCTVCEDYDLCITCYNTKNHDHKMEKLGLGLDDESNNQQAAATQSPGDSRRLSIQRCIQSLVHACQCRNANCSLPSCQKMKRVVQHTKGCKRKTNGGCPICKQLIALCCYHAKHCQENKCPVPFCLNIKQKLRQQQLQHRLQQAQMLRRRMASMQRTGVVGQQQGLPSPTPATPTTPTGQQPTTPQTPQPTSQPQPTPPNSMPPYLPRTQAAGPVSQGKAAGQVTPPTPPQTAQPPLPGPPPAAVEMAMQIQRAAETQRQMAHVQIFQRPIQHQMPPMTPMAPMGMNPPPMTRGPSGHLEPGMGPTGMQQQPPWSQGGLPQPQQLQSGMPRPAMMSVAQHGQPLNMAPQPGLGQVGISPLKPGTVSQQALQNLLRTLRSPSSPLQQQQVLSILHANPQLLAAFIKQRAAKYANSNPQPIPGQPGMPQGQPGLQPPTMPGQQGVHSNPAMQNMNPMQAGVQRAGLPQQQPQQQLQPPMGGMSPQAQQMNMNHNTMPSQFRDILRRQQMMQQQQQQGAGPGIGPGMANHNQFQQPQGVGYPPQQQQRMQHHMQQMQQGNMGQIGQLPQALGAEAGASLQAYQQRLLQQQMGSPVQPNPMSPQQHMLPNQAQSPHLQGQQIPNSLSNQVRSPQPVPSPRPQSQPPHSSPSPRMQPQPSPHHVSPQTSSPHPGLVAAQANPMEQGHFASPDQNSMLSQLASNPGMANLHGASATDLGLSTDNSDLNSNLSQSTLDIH

In turn, `CNC(=O)N1CCc2c(c(N3CCCc4cc(-c5cnn(C)c5)c(C(F)F)cc43)nn2C2CCN(C(=O)CCOCCOCCOCCOCCOCCNc3cccc4c3C(=O)N(C3CCC(=O)NC3=O)C4=O)CC2)C1` (stereo not drawn) [P-055, 3-(7-(Difluoromethyl)-6-(1-methyl-1H-pyrazol-4-yl)-3,4-dihydroquinolin-1(2H)-yl)-1-(1-(1-((2-(2,6-dioxopiperidin-3-yl)-1,3-dioxoisoindolin-4-yl)amino)-3,6,9,12,15-pentaoxaoctadecan-18-oyl)piperidin-4-yl)-N-methyl-1,4,6,7-tetrahydro-5H-pyrazolo[4,3-c]pyridine-5-carboxamide] came in with a half-maximal inhibitory concentration (IC50) with LNCaP cells (CellTiter-Glo (Table 3)) of 161 nM. Besides, on P300 (setting [1]), the inhibition at 0.01 µM was below 20%.

Take `CC(=O)N1CCc2c(c(N3CCCc4cc(-c5cnn(C)c5)c(C(F)F)cc43)nn2C2CCN(CCCCCCOc3cccc4c3C(=O)N(C3CCC(=O)NC3=O)C4=O)CC2)C1` (stereo not drawn) [P-113, 4-((6-(4-(5-acetyl-3-(7-(difluoromethyl)-6-(1-methyl-1H-pyrazol-4-yl)-3,4-dihydroquinolin-1(2H)-yl)-4,5,6,7-tetrahydro-1H-pyrazolo[4,3-c]pyridin-1-yl)piperidin-1-yl)hexyl)oxy)-2-(2,6-dioxopiperidin-3-yl)isoindoline-1,3-dione]: the IC50 with LNCaP cells (CellTiter-Glo (Table 3)) was 14.8 nM. Moreover, the inhibition at 0.01 µM on P300 (setting [1]) was above 80%.

Compound `CC(=O)N1CCc2c(c(N3CCCc4cc(-c5cnn(C)c5)c(C(F)F)cc43)nn2C2CCN(C(=O)CCN3CCC(CCc4cccc5c4C(=O)N(C4CCC(=O)NC4=O)C5=O)CC3)CC2)C1` (stereo not drawn) [P-148, 4-(2-(1-(3-(4-(5-acetyl-3-(7-(difluoromethyl)-6-(1-methyl-1H-pyrazol-4-yl)-3,4-dihydroquinolin-1(2H)-yl)-4,5,6,7-tetrahydro-1H-pyrazolo[4,3-c]pyridin-1-yl)piperidin-1-yl)-3-oxopropyl)piperidin-4-yl)ethyl)-2-(2,6-dioxopiperidin-3-yl)isoindoline-1,3-dione] had an IC50 in the test with LNCaP cells (CellTiter-Glo (Table 3)) of 73.3 nM. Besides, at P300 (setting [1]), the inhibition at 0.01 µM was above 80%.

`CC(=O)N1CCc2c(c(N3CCCc4cc(-c5cnn(C)c5)c(C(F)F)cc43)nn2C2CCN(C(=O)CCCCCCCCn3c(=O)n(C4CCC(=O)NC4=O)c4ccccc43)CC2)C1` (stereo not drawn) [P-163, 3-(3-(9-(4-(5-acetyl-3-(7-(difluoromethyl)-6-(1-methyl-1H-pyrazol-4-yl)-3,4-dihydroquinolin-1(2H)-yl)-4,5,6,7-tetrahydro-1H-pyrazolo[4,3-c]pyridin-1-yl)piperidin-1-yl)-9-oxononyl)-2-oxo-2,3-dihydro-1H-benzo[d]imidazol-1-yl)piperidine-2,6-dione]: in the test on LNCaP cells (CellTiter-Glo (Table 3)), 0.9 nM corresponded to half-maximal inhibition (IC50). For the same compound, the inhibition at 0.01 µM at P300 is above 80%.

For the compound `CNC(=O)N1CCc2c(c(N3CCCc4cc(-c5cnn(CC(=O)NCCCNc6cccc7c6C(=O)N(C6CCC(=O)NC6=O)C7=O)c5)c(C(F)F)cc43)nn2C2CCOCC2)C1` (stereo not drawn) [P-038, 3-(7-(Difluoromethyl)-6-(1-(2-((3-((2-(2,6-dioxopiperidin-3-yl)-1,3-dioxoisoindolin-4-yl)amino)propyl)amino)-2-oxoethyl)-1H-pyrazol-4-yl)-3,4-dihydroquinolin-1(2H)-yl)-N-methyl-1-(tetrahydro-2H-pyran-4-yl)-1,4,6,7-tetrahydro-5H-pyrazolo[4,3-c]pyridine-5-carboxamide], in the test on LNCaP cells (CellTiter-Glo (Table 2)), the concentration for half-maximal inhibition (IC50) worked out at 385 nM. Moreover, the inhibition at 0.01 µM on P300 (setting [2]) is below 20%.

`CNC(=O)N1CCc2c(c(N3CCCc4cc(-c5cnn(CC(=O)NCCCCCC(=O)N[C@H](C(=O)N6C[C@H](O)C[C@H]6C(=O)NCc6ccc(-c7scnc7C)cc6)C(C)(C)C)c5)c(C(F)F)cc43)nn2C2CCOCC2)C1` [P-047, 3-(7-(Difluoromethyl)-6-(1-(2-((6-(((S)-1-((2S,4R)-4-hydroxy-2-((4-(4-methylthiazol-5-yl)benzyl)carbamoyl)pyrrolidin-1-yl)-3,3-dimethyl-1-oxobutan-2-yl)amino)-6-oxohexyl)amino)-2-oxoethyl)-1H-pyrazol-4-yl)-3,4-dihydroquinolin-1(2H)-yl)-N-methyl-1-(tetrahydro-2H-pyran-4-yl)-1,4,6,7-tetrahydro-5H-pyrazolo[4,3-c]pyridine-5-carboxamide] had an IC50 in the test on LNCaP cells (CellTiter-Glo (Table 2)) of 2560 nM. Further, the inhibition at 0.01 µM at P300 (setting [2]) is below 20%.

`CC(=O)N1CCc2c(c(N3CCCc4cc(-c5cnn(C)c5)c(C(F)F)cc43)nn2C2CCN(C(=O)CCCCCNc3ccc4c(c3)n(C)c(=O)n4C3CCC(=O)NC3=O)CC2)C1` (stereo not drawn) [P-116, 3-(5-((6-(4-(5-acetyl-3-(7-(difluoromethyl)-6-(1-methyl-1H-pyrazol-4-yl)-3,4-dihydroquinolin-1(2H)-yl)-4,5,6,7-tetrahydro-1H-pyrazolo[4,3-c]pyridin-1-yl)piperidin-1-yl)-6-oxohexyl)amino)-3-methyl-2-oxo-2,3-dihydro-1H-benzo[d]imidazol-1-yl)piperidine-2,6-dione] registered a half-maximal inhibitory concentration (IC50) in the test with LNCaP cells (CellTiter-Glo (Table 3)) of 9.6 nM. The inhibition at 0.01 µM on P300 (setting [1]) was above 80%.

`CC(=O)N1CCc2c(c(N3CCCc4cc(-c5cnn(C)c5)c(C(F)F)cc43)nn2C2CCN(CCc3ccc(COc4cccc5c4CN(C4CCC(=O)NC4=O)C5=O)cc3)CC2)C1` (stereo not drawn) [P-173, 3-(4-((4-(2-(4-(5-acetyl-3-(7-(difluoromethyl)-6-(1-methyl-1H-pyrazol-4-yl)-3,4-dihydroquinolin-1(2H)-yl)-4,5,6,7-tetrahydro-1H-pyrazolo[4,3-c]pyridin-1-yl)piperidin-1-yl)ethyl)benzyl)oxy)-1-oxoisoindolin-2-yl)piperidine-2,6-dione] yielded an IC50 in the test with LNCaP cells (CellTiter-Glo (Table 3)) of 3.4 nM. Further, the inhibition at 0.01 µM at P300 (setting [1]) was 20 to 50%.

`CNC(=O)N1CCc2c(c(N3CCCc4cc(-c5cnn(C)c5)c(C(F)F)cc43)nn2C2CCN(C(=O)CCCCCCc3cccc4c3C(=O)N(C3CCC(=O)NC3=O)C4=O)CC2)C1` (stereo not drawn) [P-085, 3-(7-(difluoromethyl)-6-(1-methyl-1H-pyrazol-4-yl)-3,4-dihydroquinolin-1(2H)-yl)-1-(1-(7-(2-(2,6-dioxopiperidin-3-yl)-1,3-dioxoisoindolin-4-yl)heptanoyl)piperidin-4-yl)-N-methyl-1,4,6,7-tetrahydro-5H-pyrazolo[4,3-c]pyridine-5-carboxamide] displayed an IC50 in the test on LNCaP cells (CellTiter-Glo (Table 3)) of 3.8 nM. On P300 (setting [1]), the inhibition at 0.01 µM was above 80%.

In turn, `CNC(=O)N1CCc2c(c(N3CCCc4cc(-c5cnn(CC(=O)NCCNc6ccc7c(c6)C(=O)N(C6CCC(=O)NC6=O)C7=O)c5)c(C(F)F)cc43)nn2C2CCOCC2)C1` (stereo not drawn) [P-016, 3-(7-(Difluoromethyl)-6-(1-(2-((2-((2-(2,6-dioxopiperidin-3-yl)-1,3-dioxoisoindolin-5-yl)amino)ethyl)amino)-2-oxoethyl)-1H-pyrazol-4-yl)-3,4-dihydroquinolin-1(2H)-yl)-N-methyl-1-(tetrahydro-2H-pyran-4-yl)-1,4,6,7-tetrahydro-5H-pyrazolo[4,3-c]pyridine-5-carboxamide] came in with a half-maximal inhibitory concentration (IC50) in the test on LNCaP cells (CellTiter-Glo (Table 2)) of 3040 nM. The inhibition at 0.01 µM at P300 (setting [2]) is below 20%.

For `CC(=O)N1CCc2c(c(N3CCCc4cc(-c5cnn(C)c5)c(C(F)F)cc43)nn2C2CCN(C(=O)CCCCCCNc3cccc4nc(C)n(C5CCC(=O)NC5=O)c(=O)c34)CC2)C1` (stereo not drawn) [P-152, 3-(5-((7-(4-(5-Acetyl-3-(7-(difluoromethyl)-6-(1-methyl-1H-pyrazol-4-yl)-3,4-dihydroquinolin-1(2H)-yl)-4,5,6,7-tetrahydro-1H-pyrazolo[4,3-c]pyridin-1-yl)piperidin-1-yl)-7-oxoheptyl)amino)-2-methyl-4-oxoquinazolin-3(4H)-yl)piperidine-2,6-dione], in the test with LNCaP cells (CellTiter-Glo (Table 3)), the midpoint of inhibition, the IC50, lay at 169 nM. Further, the inhibition at 0.01 µM on P300 (setting [1]) is below 20%.

For the compound `CNC(=O)N1CCc2c(c(N3CCCc4cc(-c5cnn(C)c5)c(C(F)F)cc43)nn2C2CCN(C(=O)CCOCCOCCOCCOCCOCCNc3ccc4c(c3)C(=O)N(C3CCC(=O)NC3=O)C4=O)CC2)C1` (stereo not drawn) [P-012, 3-(7-(Difluoromethyl)-6-(1-methyl-1H-pyrazol-4-yl)-3,4-dihydroquinolin-1(2H)-yl)-1-(1-(1-((2-(2,6-dioxopiperidin-3-yl)-1,3-dioxoisoindolin-5-yl)amino)-3,6,9,12,15-pentaoxaoctadecan-18-oyl)piperidin-4-yl)-N-methyl-1,4,6,7-tetrahydro-5H-pyrazolo[4,3-c]pyridine-5-carboxamide], the half-maximal inhibitory concentration (IC50) with LNCaP cells (CellTiter-Glo (Table 2)) came out at 197 nM. For the same compound, the inhibition at 0.01 µM at P300 (setting [2]) is below 20%.
